This assay addresses Serine/threonine-protein kinase PLK1 (Homo sapiens) (UniProt P53350). Nature of the assay: PLK1 polo-box domain peptide-binding inhibitors, SAR follow-up, biochemical, fluorescence polarization, purchased analogs, concentration response (AID 1083). Conditions: Plk1 PBD peptide binding. (Polarisation of emitted light reports the rotation of a fluorescent probe.)

Values joined by “and” are separate entries in the source; they are usually repeats but may differ in a detail not shown here. Equal entries are not always repeated. Active and inactive are the calls of the source. How the calls were made is not given here. Bounds are passed on as bounds.

Sequence of Serine/threonine-protein kinase PLK1 (Homo sapiens) (P53350 whole entry, looked up, the tested form may be a part): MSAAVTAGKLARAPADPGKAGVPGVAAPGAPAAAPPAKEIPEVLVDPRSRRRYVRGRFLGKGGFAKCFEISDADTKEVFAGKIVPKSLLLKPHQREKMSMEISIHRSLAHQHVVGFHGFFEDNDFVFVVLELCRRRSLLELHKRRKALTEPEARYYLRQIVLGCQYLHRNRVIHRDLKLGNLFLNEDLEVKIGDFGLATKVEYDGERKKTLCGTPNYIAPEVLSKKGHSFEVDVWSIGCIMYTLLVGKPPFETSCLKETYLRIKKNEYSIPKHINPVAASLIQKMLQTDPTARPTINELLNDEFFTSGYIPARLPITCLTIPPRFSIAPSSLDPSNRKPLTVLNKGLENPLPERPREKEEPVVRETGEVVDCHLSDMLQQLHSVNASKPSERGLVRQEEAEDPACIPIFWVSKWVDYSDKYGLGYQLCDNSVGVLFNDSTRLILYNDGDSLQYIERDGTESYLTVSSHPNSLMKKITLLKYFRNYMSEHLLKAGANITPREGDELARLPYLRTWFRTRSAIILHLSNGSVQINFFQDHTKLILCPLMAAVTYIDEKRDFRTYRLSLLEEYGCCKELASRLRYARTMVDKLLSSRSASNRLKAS

A word on the IC50: it is the concentration that inhibits the measured activity by half. For `CC(=O)N(/N=C1\Sc2ccccc2C1=O)c1ccccc1I`, the IC50 was > 50 µM (inactive).

For the compound `CCOC(=O)c1ccc(N=Cc2c(O)n(-c3cccc(C)c3)c(=O)[nH]c2=O)cc1`, the IC50 was > 50 µM (inactive).

For `Cn1nc(-c2ccccc2)nc2c(=O)n(C)c(=O)nc1-2`, the IC50 is 1.45 µM.

As to `CCN(CC)CCOC(=O)c1ccc(N=Cc2c(O)n(-c3c(C)cc(C)cc3C)c(=O)[nH]c2=O)cc1`, the IC50 is > 50 µM (inactive).

For the compound `CCOC(=O)c1ccc(NC(=O)C2C3C=CC(C3)C2(C)C(=O)O)cc1` (stereo not given), the IC50 was > 50 µM (inactive).

Regarding `CCn1nc(-c2ccccc2C)nc2c(=O)n(C)c(=O)nc1-2`, the half-maximal inhibitory concentration (IC50) is 0.636 µM and 5.67 µM.

As to `CC(=O)N(CN1C(=O)c2ccccc2C1=O)c1ccc(I)cc1`, the IC50 is > 50 µM (inactive).

For the compound `CCOC(=O)c1ccc(NC(=O)c2cc(C)cc(C)c2)cc1`, the IC50 is > 50 µM (inactive).

Turning to `CCOC(=O)c1ccc(N=Cc2c(O)n(Cc3ccc4c(c3)OCO4)c(=O)[nH]c2=O)cc1`, the IC50 is > 50 µM (inactive).

As for `COc1cc(C=C2C(=O)NC(=O)NC2=O)cc(Cl)c1O`, the IC50 is > 50 µM (inactive).

For the compound `O=C1NC(=O)C(=Cc2cccn2-c2ccc([N+](=O)[O-])cc2)C(=O)N1`, the IC50 is > 50 µM (inactive).

For `CCOC(=O)c1ccc(NC(=O)c2ccc3snnc3c2)cc1`, the IC50 was > 50 µM (inactive).

Turning to `CCn1nc(-c2ccccc2Cl)nc2c(=O)n(C)c(=O)nc1-2`, the IC50 was 1.55 µM.

For `CC(=O)N(/N=C1\Sc2ccccc2C1=O)c1cc(C)ccc1C`, the IC50 was > 50 µM (inactive).

Regarding `CCOC(=O)c1ccc(NC(=O)c2ccc(Cl)c(Cl)c2)cc1`, the IC50 is > 50 µM (inactive).

Consider `CCOC(=O)c1ccc(NC(=O)c2ccc3nc(N)sc3c2)cc1`, for which the IC50 is > 50 µM (inactive).

As for `CC(=O)N(/C=C1\Sc2ccccc2C1=O)c1ccc(C)c(C)c1`, the IC50 is > 50 µM (inactive).

For `CCN(CC)CCOC(=O)c1ccc(N=Cc2c(O)n(Cc3ccccc3)c(=O)[nH]c2=O)cc1`, the IC50 is > 50 µM (inactive).

With `CCOC(=O)c1ccc(NC(=O)c2c(C)cc(=O)oc2C)cc1`, the IC50 was > 50 µM (inactive).

`Cn1c(=O)[nH]c2nnc(-c3ccccc3)nc2c1=O`: the IC50 is > 50 µM (inactive).

As for `Cc1ccc(N(CN2C(=O)c3ccc([N+](=O)[O-])cc3C2=O)C(=O)C(c2ccccc2)c2ccccc2)cc1`, the IC50 was > 50 µM (inactive).

As for `CCn1nc(-c2ccccc2Br)nc2c(=O)n(C)c(=O)nc1-2`, the IC50 was 1.35 µM.

As for `CCOC(=O)c1ccc(NC(=O)c2cc3ccccc3oc2=O)cc1`, the IC50 was > 50 µM (inactive).

As to `CCOC(=O)c1ccc(NC(=O)C2CCC(C(C)(C)C)CC2)cc1` (stereo not given), the IC50 is > 50 µM (inactive).

`CC(=O)N(/N=C1\Sc2ccccc2C1=O)c1ccc(C)cc1C`: the IC50 was > 50 µM (inactive).

Turning to `O=C(COC(=O)c1ccc(NC(=O)c2ccc(Cl)cc2)cc1)c1ccccc1`, the IC50 was > 50 µM (inactive).

Take `CCCOC(=O)c1ccc(NC(=O)c2cc(-c3cccs3)nc3c(C)c(Cl)ccc23)cc1`: the IC50 was > 50 µM (inactive).

As for `COc1ccc(N(/C=C2\Sc3ccccc3C2=O)C(C)=O)cc1`, the IC50 was > 50 µM (inactive).

As for `COC(=O)c1ccc(NC(=O)c2cc(-c3ccc(C)o3)nc3ccccc23)cc1`, the IC50 was > 50 µM (inactive).

For the compound `CCOC(=O)c1ccc(NC(=O)C2Oc3ccccc3OC2C)cc1` (stereo not given), the IC50 is > 50 µM (inactive).

In the case of `CCOC(=O)c1ccc(NC(=O)C2COc3ccccc3O2)cc1` (stereo not given), the IC50 was > 50 µM (inactive).

In the case of `CC(=O)N(/N=C1\Sc2ccccc2C1=O)c1cccc(C)c1`, the IC50 was 14 µM.

Turning to `CC(=O)N(/N=C1\Sc2ccccc2C1=O)c1ccccc1`, the IC50 was 20.5 µM.

`CC(=O)N(/C=C1\Sc2ccccc2C1=O)c1cccc(C)c1`: the IC50 was > 50 µM (inactive).

For `COc1ccccc1N(CN1C(=O)c2ccc([N+](=O)[O-])cc2C1=O)C(C)=O`, the IC50 is > 50 µM (inactive).

The values above are taken from PubChem BioAssay AID1083 (University of Pittsburgh Molecular Library Screening Center, 2008).
